Broadly, the EC50 is the concentration needed to bring the measured effect to its halfway point.

The assay relates to PLAP expression AR42J cells. The assay is described as follows: β cell differentiation promoting activity using human placenta alkaline phosphatase expression AR42J cells, Example 20. Format: cell-based. To be noted: 5 days incubation, read-out: BTC activity EC50. The method, then: 100 μL of these suspensions were inoculated to 96 well plates and incubated for 5 days at 37° C. in carbon dioxide gas incubators (5% carbon dioxide gas, 95% air). After 5 days, the culture supernatant were treated for 30 minutes at 65° C., and 50 μL was then added to 96-well microplates containing 50 μL of 2×SEAP (2M diethanolamine, 1 mM MgCl2, 20 mM homoarginine). 10 μL of 20 mg/mL p-nitrophenylphosphoric acid (Sigma) was added, and a reaction was brought about for 16 hours at 37° C. The ratio between EGF activity and the BTC activity of all the muteins decreased to about 5% of that of the Met-80 residue betacellulin, and was about the same as that of the Met-76 residue betacellulin, with no apparent influence by the N terminal deletion.

For “BTC2-76: betacellulin mutein lacking one N terminal residue and four C terminal residues, SEQ ID NO: 37”, the EC50 is 0.12 nM.

“BTC24-76: betacellulin mutein lacking 23 N terminal residues and four C terminal residues, SEQ ID NO: 38”: the EC50 is 0.03 nM.

These data come from patent US6825165B1, “Betacellulin modification” (Takeda Chemical Industries, Ltd., priority 1998, dated 2004).
